pEC50: −log10 of the molar value.
Target: T1, human parathyroid cell Ca^2+ receptor (hPCaR) (Homo sapiens, UniProt P41180)
T1 construct: expressed in transfected cells
T1 sequence (P41180 20-1078): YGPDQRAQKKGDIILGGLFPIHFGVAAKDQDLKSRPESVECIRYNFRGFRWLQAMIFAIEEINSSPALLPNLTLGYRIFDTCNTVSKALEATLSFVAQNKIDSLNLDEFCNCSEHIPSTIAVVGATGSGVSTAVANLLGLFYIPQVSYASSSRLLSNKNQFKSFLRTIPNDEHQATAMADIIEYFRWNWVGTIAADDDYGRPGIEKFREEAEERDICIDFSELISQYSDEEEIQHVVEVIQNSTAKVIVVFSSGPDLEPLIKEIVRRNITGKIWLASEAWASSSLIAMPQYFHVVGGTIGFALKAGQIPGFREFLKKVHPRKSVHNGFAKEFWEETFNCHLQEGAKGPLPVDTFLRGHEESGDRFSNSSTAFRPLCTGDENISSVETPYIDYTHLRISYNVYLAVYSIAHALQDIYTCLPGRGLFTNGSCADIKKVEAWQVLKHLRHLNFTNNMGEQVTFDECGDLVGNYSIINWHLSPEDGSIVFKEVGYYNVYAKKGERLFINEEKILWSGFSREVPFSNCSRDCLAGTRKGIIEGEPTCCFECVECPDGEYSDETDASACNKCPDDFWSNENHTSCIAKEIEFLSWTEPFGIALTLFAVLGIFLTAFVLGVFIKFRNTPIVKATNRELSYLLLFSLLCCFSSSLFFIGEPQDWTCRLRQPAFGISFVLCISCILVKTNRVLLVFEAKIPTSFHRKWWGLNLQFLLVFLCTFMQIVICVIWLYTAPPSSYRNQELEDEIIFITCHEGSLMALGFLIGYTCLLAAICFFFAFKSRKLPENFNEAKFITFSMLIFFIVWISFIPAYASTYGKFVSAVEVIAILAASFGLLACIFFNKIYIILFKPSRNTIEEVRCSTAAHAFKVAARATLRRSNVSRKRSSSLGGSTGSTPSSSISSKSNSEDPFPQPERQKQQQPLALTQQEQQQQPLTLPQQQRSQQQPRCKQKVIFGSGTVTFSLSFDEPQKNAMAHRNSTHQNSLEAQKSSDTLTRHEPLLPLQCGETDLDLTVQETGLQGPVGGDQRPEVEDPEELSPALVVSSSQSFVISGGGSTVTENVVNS
Assay: [Ca2+]i measurement with fluo-3 in HEK 293 4.0-7 cells stably transfected with hPCaR
Assay type: cell-based
Settings: fluo-3 fluorescence (485/530 nm), effect on [Ca^2+]i
Summary of the method: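 Cytosolic [Ca2+] was read as fluo-3 fluorescence (ex 485/em 530 nm) after compound addition to washed cells. Cells were hPCaR-transfected HEK 293 clone 7, dye-loaded 30 min at 37 °C with 2 μM fluo-3 acetoxymethyl ester in HEPES-buffered saline pH 7.45 containing 1 mM CaCl2 and 0.5% BSA.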

pEC50, ≥ 5.00:
COc1cccc([C@@H](C)NCc2ccc(OC)c(-c3cnccn3)c2)c1 [(1R)-1-(3-(methyloxy)phenyl)-N-((4-(methyloxy)-3-(2-pyrazinyl)phenyl)methyl)ethanamine]
CCOC(=O)c1ccc(-c2cc(CN[C@H](C)c3cccc4ccccc34)ccc2OC)cc1 [ethyl 2′-(methyloxy)-5′-((((1R)-1-(1-naphthalenyl)ethyl)amino)methyl)-1,1′-biphenyl-4-carboxylate]
COc1cccc([C@@H](C)NCc2ccc(OC)c(-c3ccc4c(ccn4CC(N)=O)c3)c2)c1 [2-(5-(2-(methyloxy)-5-((((1R)-1-(3-(methyloxy)phenyl)ethyl)amino)methyl)phenyl)-1H-indol-1-yl)acetamide]
C[C@@H](NCc1ccc(Cl)c(-c2ccc(OC(F)(F)F)cc2)c1)c1ccccc1 [(1R)-N-((6-chloro-4′-((trifluoromethyl)oxy)-1,1′-biphenyl-3-yl)methyl)-1-phenylethanamine]
COc1cccc(-c2cc(CN[C@H](C)c3cccc(OC)c3)ccc2OC)c1 [(1R)-N-((3′,6-bis(methyloxy)-1,1′-biphenyl-3-yl)methyl)-1-(3-(methyloxy)phenyl)ethanamine]
COc1ccc(CN[C@H](C)c2cccc3ccccc23)cc1-c1ccoc1 [(1R)-N-((3-(3-furanyl)-4-(methyloxy)phenyl)methyl)-1-(1-naphthalenyl)ethanamine]
COc1ccc(CNC(C)c2cccc(Br)c2)cc1-c1ccc(C(F)(F)F)cc1 (stereo not drawn) [1-(3-bromophenyl)-N-((6-(methyloxy)-4′-(trifluoromethyl)-1,1′-biphenyl-3-yl)methyl)ethanamine]
COc1ccc([C@@H](C)NCc2ccc(OC)c(-c3ccc(OC)nn3)c2)cc1 [(1R)-N-((4-(methyloxy)-3-(6-(methyloxy)-3-pyridazinyl)phenyl)methyl)-1-(4-(methyloxy)phenyl)ethanamine]
COc1ccc([C@@H](C)NCc2cccc(-c3ccoc3)c2)cc1 [Example 223, (1R)-N-((3-(3-furanyl)phenyl)methyl)-1-(4-(methyloxy)phenyl)ethanamine]
COc1cccc([C@@H](C)NCc2ccc(OC)c(-c3ccc(C(=O)O)o3)c2)c1 [5-(2-(methyloxy)-5-((((1R)-1-(3-(methyloxy)phenyl)ethyl)amino)methyl)phenyl)-2-furancarboxylic acid]
COc1cccc([C@@H](C)NCc2ccc(OC)c(-c3ccc(Cl)cc3)c2)c1 [(1R)-N-((4′-chloro-6-(methyloxy)-1,1′-biphenyl-3-yl)methyl)-1-(3-(methyloxy)phenyl)ethanamine]
C[C@@H](NCc1ccc(OCC(F)(F)F)c(-c2ccc(C(F)(F)F)cc2)c1)c1cccc2ccccc12 [(1R)-1-(1-naphthalenyl)-N-((6-((2,2,2-trifluoroethyl)oxy)-4′-(trifluoromethyl)-1,1′-biphenyl-3-yl)methyl)ethanamine]
C[C@@H](NCc1ccc(C(F)(F)F)c(-c2ccc(C(F)(F)F)cc2)c1)c1ccccc1 [Example 314, (1R)-N-((4′,6-bis(trifluoromethyl)-1,1′-biphenyl-3-yl)methyl)-1-phenylethanamine]
COc1ccc(CN[C@H](C)c2ccc(C)cc2)cc1-c1cncc(C(N)=O)c1 [5-(2-(methyloxy)-5-((((1R)-1-(4-methylphenyl)ethyl)amino)methyl)phenyl)-3-pyridinecarboxamide]
COc1ccc(CN[C@H](C)c2cccc(F)c2)cc1-c1ccccc1 [(1R)-1-(3-fluorophenyl)-N-((6-(methyloxy)-1,1′-biphenyl-3-yl)methyl)ethanamine]
COc1ccc(CN[C@H](C)c2ccccc2)cc1-c1ccc2ncccc2c1 [(1R)-N-((4-(methyloxy)-3-(6-quinolinyl)phenyl)methyl)-1-phenylethanamine]
COc1cccc([C@@H](C)NCc2ccc(OC)c(-c3cccc(C(F)(F)F)c3)c2)c1 [(1R)-1-(3-(methyloxy)phenyl)-N-((6-(methyloxy)-3′-(trifluoromethyl)-1,1′-biphenyl-3-yl)methyl)ethanamine]
COc1ccc(CN[C@H](C)c2ccccc2)cc1-c1cncc(C(N)=O)c1 [5-(2-(methyloxy)-5-((((1R)-1-phenylethyl)amino)methyl)phenyl)-3-pyridinecarboxamide]
COc1ccc(CN[C@H](C)c2cccc3ccccc23)cc1-c1ccc2ccn(C)c2c1 [(1R)-N-((3-(1-methyl-1H-indol-6-yl)-4-(methyloxy)phenyl)methyl)-1-(1-naphthalenyl)ethanamine]
COc1ccc(CN[C@H](C)c2ccccc2)cc1-c1cncnc1 [(1R)-N-((4-(methyloxy)-3-(5-pyrimidinyl)phenyl)methyl)-1-phenylethanamine]
COc1ccc(-c2cccc(CN[C@H](C)c3ccc4ccccc4c3)c2)cc1 [(1R)-N-((4′-(methyloxy)-1,1′-biphenyl-3-yl)methyl)-1-(2-naphthalenyl)ethanamine]
COc1ccc(CNC(C)c2cccc(OC(F)(F)F)c2)cc1-c1ccc(C(F)(F)F)cc1 (stereo not drawn) [N-((6-(methyloxy)-4′-(trifluoromethyl)-1,1′-biphenyl-3-yl)methyl)-1-(3-((trifluoromethyl)oxy)phenyl)ethanamine]
CCOC(=O)N1CCC(c2cc(CN[C@H](C)c3cccc4ccccc34)ccc2OC)CC1 [ethyl 4-(2-(methyloxy)-5-((((1R)-1-(1-naphthalenyl)ethyl)amino)methyl)phenyl)-1-piperidinecarboxylate]
COc1ccc(CN[C@H](C)c2ccccc2)cc1-c1ccsc1 [(1R)-N-((4-(methyloxy)-3-(3-thienyl)phenyl)methyl)-1-phenylethanamine]
COc1cccc(-c2cccc(CN[C@H](C)c3cccc(OC)c3)c2)c1 [(1R)-N-((3′-(methyloxy)-1,1′-biphenyl-3-yl)methyl)-1-(3-(methyloxy)phenyl)ethanamine]
COc1ccc(CN[C@H](C)c2ccccc2)cc1-c1cccc(C(=O)O)c1 [2′-(methyloxy)-5′-((((1R)-1-phenylethyl)amino)methyl)-1,1′-biphenyl-3-carboxylic acid]
COc1ccc(CN[C@H](C)c2cccc3ccccc23)cc1-c1ccc2c(ccn2CC2CC2)c1 [(1R)-N-((3-(1-(cyclopropylmethyl)-1H-indol-5-yl)-4-(methyloxy)phenyl)methyl)-1-(1-naphthalenyl)ethanamine]
COc1cccc([C@@H](C)NCc2ccc(OC)c(-c3cc(OC)ccn3)c2)c1 [(1R)-N-((4-(methyloxy)-3-(4-(methyloxy)-2-pyridinyl)phenyl)methyl)-1-(3-(methyloxy)phenyl)ethanamine]
COCCOc1ccc(CN[C@H](C)c2ccccc2)cc1-c1ccc(C(F)(F)F)cc1 [(1R)-N-((6-((2-(methyloxy)ethyl)oxy)-4′-(trifluoromethyl)-1,1′-biphenyl-3-yl)methyl)-1-phenylethanamine]
COc1ccc(CN[C@H](C)c2ccccc2)cc1-c1ccc2c(c1)nc(C(F)(F)F)n2C [(1R)-N-((4-(methyloxy)-3-(1-methyl-2-(trifluoromethyl)-1H-benzimidazol-5-yl)phenyl)methyl)-1-phenylethanamine]

— US6908935B2, “Calcium receptor modulating agents” (Amgen Inc., priority 2002, dated 2005)
